“Also recorded” adds a separate entry of the source.
Assays:
soluble P-selectin [1] = settings: standard anticoagulants compared in words; cited from earlier work
D-dimer = assay: Plasma D-dimer (Asserachrom D-Di ELISA), phase II trial in cancer patients; assay type: in vivo, human
Description: A multi-center, multi-dose phase II trial was conducted to evaluate, among other markers and readouts, the efficacy of targeting protein disulfide isomerase (PDI) along with soluble P-selectin with isoquercetin to reduce the hypercoagulability in cancer patients at high risk for venous thromboembolism (VTE). Patients received isoquercetin at 500 mg (cohort A) or 1000 mg (cohort B) daily for 56 days with laboratory assays at the beginning and at completion of study (along with duplex ultrasound). The primary endpoint was a reduction in D-dimer and the primary clinical endpoint included pulmonary embolism or proximal deep vein thrombosis, and also included measuring the level of soluble P-selectin. (See, Zwicker et al., JCI Insight.2019; 4(4):e125851.)
The primary endpoint of the study was comparison of plasma D-dimer at baseline and end-of-study. D-dimer is liberated from cross-linked fibrin following […] degradation. D-dimer is the most validated and commonly utilized laboratory assay in the clinic to detect deep vein thrombosis. In patients with advanced cancer, plasma D-dimer levels are commonly elevated and correlate with an increased risk for developing of VTE.
Participants were sequentially enrolled into two dosing cohorts: Cohort A (isoquercetin 500 mg) and Cohort B (isoquercetin 1000 mg). Isoquercetin was supplied in capsules containing 250 mg of isoquercetin each with 10 mg added as overage to guarantee a minimum of 250 mg of isoquercetin per capsule with added Vitamin C and Vitamin B3 by Quercegen Pharmaceuticals LLC (Boston, MA). The drug product capsules were manufactured by Pharmavize NV, Kleinmoer 4, 9030 Mariakerke, Belgium.
The ratio of components in the capsules was: 1:0.25:0.02 of isoquercetin, vitamin C, and vitamin B3, respectively. It is noted that folic acid can optionally be present in the isoquercetin composition. Isoquercetin was taken orally daily for a total of 56 days. The first 5 patients of each cohort were monitored for evidence of toxicity prior (≥1 grade 3 or higher toxicity possibly related to isoquercetin) prior to the subsequent enrollment of 25 patients into each cohort. Patients were monitored for development of a venous thromboembolic event throughout the study including a bilateral lower extremity duplex ultrasound at end of study visit (day 56±5). […]
Blood was drawn by peripheral venipuncture into 3.2% citrate. […] D-dimer was measured centrally using Asserrachrom D-Di ELISA, considered the reference standard assay for D-dimer (Stago, France) (Meyer G. et al., Blood Coagulation & Fibrinolysis. 1998; 9(7):603-8.).

[2] = test system: platelet-dependent thrombin generation; assay: Platelet-dependent thrombin generation assay on patient plasma; assay type: in vivo, human; settings: follow-up vs baseline
From the text: The platelet-dependent thrombin generation assay measures thrombin generation following platelet activation and requires PDI. […] Correlation between PDI inhibitory activity in plasma and platelet-dependent thrombin generation confirmed the PDI-dependency of thrombin generation (Spearman coefficient 0.29, P=0.004). There was significant correlation between increased plasma PDI inhibitory activity and decreased thrombin generation (Pearson correlation coefficient 0.45, P=0.002)
Platelet-dependent thrombin generation was performed according to previously published methodology (Stopa J D et al., JCI insight. 2017;2(1):e89373; Jurk K et al. J Thromb Haemost. 2011; 9(11):2278-90). Briefly, platelet-free plasma was mixed with donor platelet-rich plasma diluted to a platelet concentration of 250,000 platelets per microliter in the presence of 5 mM GPRP and 6 mM CaCl2), and then stimulated with 0.1 U/ml of thrombin. Samples were incubated for 90 min at room temperature with rotation, and thrombin levels were measured using cleavage of a fluorescent thrombin-specific substrate (Haemtech SN-20 Boc-L-FPR-ANSNH-C2H5) by excitation at 352 nm and emission as a function of time at 470 nm. Rates of substrate cleavage were used to calculate the concentration of thrombin in each sample.

soluble P-selectin [3] = assay: Soluble P-selectin (CD62) in plasma, commercial ELISA; assay type: in vivo, human; settings: for median change in soluble P-selectin: end-of-treatment vs baseline plasma
From the text: P-selectin is a transmembrane adhesion receptor that is externalized from α-granules in platelets and Weibel-Palade bodies in endothelial cells following cell activation. P-selectin can be shed from the cell surface following externalization and P-selectin shedding is increased in cardiovascular disease, sepsis, and cancer. […] As PDI inhibition alters platelet and endothelial reactivity, baseline versus end-of-treatment plasma levels of soluble P-selectin following treatment with isoquercetin was compared. As shown in FIG. 6A-FIG. 6B, there was no change in soluble P-selectin in Cohort A (FIG. 6A) (median change −0.3%, P=0.26).
(§1) Measurement of soluble P-selectin (CD62) was performed centrally using a commercial ELISA (Invitrogen/ThermoFisher Scientific #BMS219-4) and prothrombin time and partial thromboplastin time according to standard manufacturer protocol on a Sago Start 4 instrument (STA-Neoplastine CI Plus 5 #00606, STA-PTT Automate 5 #00595).

[4] = test system: prothrombin time and partial thromboplastin time; assay: Standard coagulation assays (prothrombin time, partial thromboplastin time); assay type: in vivo, human
Description: as §1

[5] = test system: patients with advanced cancer; assay: Venous thromboembolism monitoring (clinical and end-of-study lower extremity ultrasound); assay type: in vivo, human
From the text: Patients were monitored for the development of venous thromboembolism (VTE) throughout the two months of the study including an end-of-study bilateral lower extremity ultrasound to evaluate for asymptomatic lower extremity proximal DVT. Shown in FIG. 3A-FIG. 3D is the proportion of patients remaining free of VTE through the course of the study. […] There were three secondary VTE endpoints recorded in cohort A (FIG. 3C, two incidental catheter-associated DVT diagnosed with re-staging imaging and one lower extremity superficial venous clot). In cohort B (FIG. 3D), there were two secondary endpoint thrombotic events recorded (superficial venous clot of the lower extremity and incidental thrombosis observed in a lingular pulmonary vein on re-staging imaging).
(§2) The ratio of components in the capsules was: 1:0.25:0.02 of isoquercetin, vitamin C, and vitamin B3, respectively. It is noted that folic acid can optionally be present in the isoquercetin composition. Isoquercetin was taken orally daily for a total of 56 days. The first 5 patients of each cohort were monitored for evidence of toxicity prior (≥1 grade 3 or higher toxicity possibly related to isoquercetin) prior to the subsequent enrollment of 25 patients into each cohort. Patients were monitored for development of a venous thromboembolic event throughout the study including a bilateral lower extremity duplex ultrasound at end of study visit (day 56±5). Participants were taken off study if they developed an intercurrent illness that prevented further administration; unacceptable adverse events; poor compliance; participant preference; VTE or condition requiring therapeutic anticoagulation; requirement for prophylactic anticoagulation for >7 consecutive days; or grade ≥3 hemorrhage or otherwise met the ISTH criteria for major hemorrhage. Doses were held for grade 2 hemorrhage or platelet count <50×10^9/L.
The primary VTE endpoint included any symptomatic proximal or distal deep vein thrombosis, symptomatic PE or fatal PE diagnosed by autopsy, asymptomatic proximal DVT diagnosed by protocol-specified ultrasound at end of study. All suspected VTE were assessed by an independent adjudication committee that included central radiologic review of images. Criteria for new VTE included any of the following: A) A new noncompressibility of lower extremity deep venous segments by compression ultrasound (distal lower extremity thrombus qualified for primary VTE endpoint only if symptomatic). […] All other venous or arterial events were recorded and analyzed as secondary endpoints. […]

[6] = test system: patients with advanced cancer; assay: Safety: hemorrhage (ISTH) and toxicities (CTCAE) in phase II trial; assay type: in vivo, human
From the text: as §2
The primary VTE endpoint included any symptomatic proximal or distal deep vein thrombosis, symptomatic PE or fatal PE diagnosed by autopsy, asymptomatic proximal DVT diagnosed by protocol-specified ultrasound at end of study. All suspected VTE were assessed by an independent adjudication committee that included central radiologic review of images. Criteria for new VTE included any of the following: A) A new noncompressibility of lower extremity deep venous segments by compression ultrasound (distal lower extremity thrombus qualified for primary VTE endpoint only if symptomatic). B) Intraluminal defects in two or more views on pulmonary angiography, sudden contrast cut-off of one or more vessels greater than 2.5 mm in diameter on a pulmonary angiogram; a high probability VQ lung scan showing one or more segmental perfusion defects with corresponding normal ventilation (mismatch defect); or abnormal spiral CT showing thrombus in pulmonary vessels (subsegmental or larger). All other venous or arterial events were recorded and analyzed as secondary endpoints. Criteria for major hemorrhage was according to ISTH definition (Schulman S, and Kearon C. J Thromb Haemost. 2005; 3(4):692-4). All toxicities were graded according NCI Common Terminology Criteria for Adverse Events (CTCAE). Study oversight was performed by an independent Data Safety Monitoring Committee at Dana Farber Harvard Cancer Center.

[7] = isoquercetin at 500 mg; prior pharmacokinetic studies; cited from earlier work
[8] = Cohort A, isoquercetin 500 mg daily
[9] = Cohort B, isoquercetin 1000 mg daily

CC(=O)CC(c1ccccc1)c1c(O)c2ccccc2oc1=O (stereo not drawn) [warfarin]
lowering of soluble P-selectin levels (activity shared with isoquercetin or not) (soluble P-selectin [1]): not shared

O=c1c(O[C@@H]2O[C@H](CO)[C@@H](O)[C@H](O)[C@H]2O)c(-c2ccc(O)c(O)c2)oc2cc(O)cc(O)c12 [isoquercetin, 2-(3,4-Dihydroxyphenyl)-5,7-dihydroxy-3-[(2S,3R,4S,5S,6R)-3,4,5-trihydroxy-6-(hydroxymethyl)oxan-2-yl]oxychromen-4-one]
individuals with reduced D-dimer (D-dimer; Cohort B, 1000 mg daily, paired samples): 18 of 22 | median change in D-dimer (D-dimer; Cohort B, isoquercetin 1000 mg daily oral, 56 days, baseline vs end-of-study, cancer patients): −21.9% | median decrease of D-dimer plasma concentrations (D-dimer; isoquercetin 1000 mg daily, 56 days, printed as decrease without sign): 21.9% | reduction of D-dimer levels (in words) (D-dimer; lower dose, isoquercetin 500 mg): did not reduce D-dimer levels | median change in platelet-dependent thrombin generation [2, 8]: −31.1% | median change in platelet-dependent thrombin generation [2, 9]: −57.2% | median change in soluble P-selectin (soluble P-selectin [3]; [8]): −0.3% | patients with decreased soluble P-selectin (in words) (soluble P-selectin [3]; [9]): decreased in all patients except one | median change in soluble P-selectin (soluble P-selectin [3]; [9]): −57.9% | mean PT at 2-months ([4]; Cohort A, 500 mg daily, baseline 14.0 seconds): 14.3 s | mean PTT at study completion ([4]; Cohort A, 500 mg daily, baseline 49.6 seconds): 45.6 s | mean PT at 2-months ([4]; Cohort B, 1000 mg daily, baseline 15.1 seconds): 15.2 s | mean PTT at 2-months ([4]; Cohort B, 1000 mg daily, baseline 54.2 seconds): 51.9 s | effects in standard coagulation assays (in words) ([4]; following administration of isoquercetin, both cohorts): no effects detected | secondary VTE endpoints recorded ([5]; Cohort A, 500 mg daily, two catheter-associated DVT, one superficial venous clot): three | secondary endpoint thrombotic events recorded ([5]; Cohort B, 1000 mg daily, superficial venous clot, lingular pulmonary vein thrombosis): two | primary VTE endpoint events ([5]; both cohorts (500 mg and 1000 mg daily), 2-month study): no VTE that met criteria for the primary VTE endpoint; also recorded: no primary VTE endpoints observed | proximal deep vein thrombosis, pulmonary emboli, or major hemorrhage observed ([5]; treated patients, cancer population at higher risk for thrombosis and hemorrhage): none of the following were observed | patients developing grade 1 epistaxis ([6]; Cohort A, 500 mg daily): One | patients developing non-severe gastrointestinal bleeding ([6]; Cohort B, 1000 mg daily, grade 1 hemorrhoid and grade 2 rectal bleeding): two | severe adverse events (grade 3 or 4) attributed to isoquercetin ([6]; both cohorts): no severe adverse events (grade 3 or 4); also recorded: No grade 3 or 4 toxicities were reported | major hemorrhages ([6]; both cohorts, modified intention-to treat analyses): no major hemorrhages observed | most commonly reported toxicities on study ([6]; common toxicities of the concurrent chemotherapeutics): nausea and diarrhea | deaths during the 2 months of follow-up ([6]; following initiation of isoquercetin): no deaths reported | plasma concentrations relative to IC50 of PDI activity in vitro [7]: fall below the inhibitory concentration (IC50) of PDI activity in vitro

O=C(NC[C@H]1CN(c2ccc(N3CCOCC3=O)cc2)C(=O)O1)c1ccc(Cl)s1 [rivaroxaban]
lowering of soluble P-selectin levels (activity shared with isoquercetin or not) (soluble P-selectin [1]): not shared
